Read-outs that look alike come from different tables or passages of the source.
What was measured:
[1] = test system: beet armyworm (BAW; Spodoptera exigua: Lepidoptera); experiment: 96-well microtiter plate-based high throughput (HTS) bioassay on beet armyworm (BAW HTS); format: in vivo; settings: 144 h, read-out: BAW HTS
Protocol: (§1) Bioassays on beet armyworm (BAW; Spodoptera exigua: Lepidoptera) were conducted using either a 96-well microtiter plate-based high throughput (HTS) bioassay or a 128-well diet tray assay. The HTS assay is based on a modification of Lewer et al. J. Nat. Prod. 2006, 69, 1506. BAW eggs were placed on top of artificial diet (100 μL) in each well of a 96-well microtiter plate. The diet was pretreated with test compounds (12 μg dissolved in 30 μL of DMSO-acetone-H2O mixture) layered on top of the diet using a liquid handling system and then allowed to dry for several hours. Infested plates were then covered with a layer of sterile cotton batting and the plate lid, and then held in the dark at 29° C. Mortality was recorded at 6 days post-treatment. Each plate had six replicates. The percent mortality was calculated from the average of the six replicates. In the case of the 128-well diet assay, three to five second instar BAW larvae were placed in each well (3 mL) of the diet tray that had been previously filled with 1 mL of artificial diet to which 50 ug/cm^2 of the test compound (dissolved in 50 μL of 90:10 acetone-water mixture) had been applied (to each of eight wells) and then allowed to dry. Trays were covered with a clear self-adhesive cover, and held at 25° C., 14:10 light-dark for six days. Percent mortality was recorded for the larvae in each well; activity in the eight wells was then averaged. In Table 4, under both the BAW HTS and BAW 50 headings, an “A” means that the compound was tested and at least 50 percent mortality was observed whereas, “B” means that either (1) the compound was tested and less than 50 percent mortality was observed or (2) the compound was not tested.

[2] = test system: beet armyworm (BAW; Spodoptera exigua: Lepidoptera); experiment: 128-well diet tray assay on beet armyworm (BAW 50); format: in vivo; settings: 144 h, read-out: BAW 50
Protocol: as §1

[3] = percent mortality, 96-well HTS, 12 μg test compound on diet, BAW eggs, 6 days post-treatment, 29° C., average of six replicates
[4] = percent mortality, 128-well diet assay, 50 ug/cm^2 of test compound on diet, second instar BAW larvae, six days, 25° C., average of eight wells

Compound	pest or weed control at 12 µg/well, 12 µg/well [1, 3] [%]	pest or weed control at 50 µg/cm2, 50 µg/cm2 [2, 4] [%]	pest or weed control at 12 µg/well, 12 µg/well [1] [%]	pest or weed control at 50 µg/cm2, 50 µg/cm2 [2] [%]
CCCO[C@@H]1[C@@H](OC)[C@H](C)O[C@@H](O/N=C/c2ccc(/C=C/c3ccc(OC(F)(F)F)cc3)cc2)[C@@H]1OC [Compound 1, 4-[(E)-2-(4-trifluoromethoxyphenyl)-vinyl]-benzaldehyde O-((2S,3R,4R,5S,6S)-3,5-dimethoxy-6-methyl-4-propoxy-tetrahydropyran-2-yl)-oxime]	> 50	> 50	–	–
CCO[C@@H]1[C@@H](OC)[C@H](C)O[C@@H](O/N=C/c2ccc(/C=C/c3ccc(OC(F)(F)F)cc3)cc2)[C@@H]1OC [Compound 5, 4-[(E)-2-(4-Trifluoromethoxyphenyl)-vinyl]-benzaldehyde O-((2S,3R,4R,5S,6S)-4-ethoxy-3,5-dimethoxy-6-methyl-tetrahydropyran-2-yl)-oxime]	< 50	> 50	–	–
CCOc1ccc(/C=C/c2ccc(NC(=O)O[C@@H]3O[C@@H](C)[C@H](OC)[C@@H](OC)[C@H]3OC)cc2)cc1 [Compound 17, {4-[(E)-2-(4-Ethoxyphenyl)-vinyl]-phenyl}-carbamic acid (2S,3R,4R,5S,6S)-3,4,5-tri-methoxy-6-methyl-tetrahydropyran-2-yl ester]	–	–	< 50	> 50
CCO[C@@H]1[C@@H](OC)[C@H](C)O[C@@H](OC(=O)Nc2ccc(/N=N/c3ccc(C(F)(F)F)cc3)cc2)[C@@H]1OC [Compound 21, [4-(4-Trifluoromethylphenylazo)-phenyl]-carbamic acid (2S,3R,4R,5S,6S)-4-ethoxy-3,5-dimethoxy-6-methyl-tetrahydropyran-2-yl ester]	–	–	> 50	< 50
CCO[C@@H]1[C@@H](OC)[C@H](C)O[C@@H](O/N=C/c2ccc(C#Cc3ccc(C(F)(F)F)cc3)cc2)[C@@H]1OC [Compound 14, 4-(4-Trifluoromethylphenylethynyl)-benzaldehyde O-((2S,3R,4R,5S,6S)-4-ethoxy-3,5-dimethoxy-6-methyl-tetrahydropyran-2-yl)-oxime]	> 50	> 50	–	–
CCO[C@@H]1[C@@H](OC)[C@H](C)O[C@@H](O/N=C/c2ccc(/C=C/c3ccc(C(F)(F)F)cc3)cc2)[C@@H]1OC [Compound 2, 4-[(E)-2-(4-Trifluoromethylphenyl)-vinyl]-benzaldehyde O-((2S,3R,4R,5S,6S)-4-ethoxy-3,5-dimethoxy-6-methyl-tetrahydropyran-2-yl)-oxime]	> 50	> 50	–	–
CO[C@@H]1[C@@H](OC)[C@H](C)O[C@@H](O/N=C/c2ccc(C#Cc3ccc(C(F)(F)F)cc3)cc2)[C@@H]1OC [Compound 15, 4-(4-Trifluoromethylphenylethynyl)-benzaldehyde O-((3R,4R,5S,6S)-3,4,5-trimethoxy-6-methyl-tetrahydropyran-2-yl)-oxime]	> 50	> 50	–	–
CO[C@@H]1[C@@H](OC)[C@H](C)O[C@@H](O/N=C/c2ccc(/C=C/c3ccc(C(F)(F)F)cc3)cc2)[C@@H]1OC [Compound 12, 4-[(E)-2-(4-Trifluoromethylphenyl)-vinyl]-benzaldehyde O-((2S,3R,4R,5S,6S)-3,4,5-trimethoxy-6-methyl-tetrahydropyran-2-yl)-oxime]	> 50	> 50	–	–
CCCO[C@@H]1[C@@H](OC)[C@H](C)O[C@@H](O/N=C/c2ccc(/C=C/c3ccc(C(F)(F)F)cc3)cc2)[C@@H]1OC [Compound 10, 4-[(E)-2-(4-Trifluoromethylphenyl)-vinyl]-benzaldehyde O-((2S,3R,4R,5S,6S)-4-propoxy-3,5-dimethoxy-6-methyl-tetrahydropyran-2-yl)-oxime]	> 50	> 50	–	–
CCO[C@@H]1[C@@H](OC)[C@H](C)O[C@@H](O/N=C/c2ccc(/C=C/c3cccc(C(F)(F)F)c3)cc2)[C@@H]1OC [Compound 6, 4-[(E)-2-(3-Trifluoromethylphenyl)-vinyl]-benzaldehyde O-((2S,3R,4R,5S,6S)-4-ethoxy-3,5-dimethoxy-6-methyl-tetrahydropyran-2-yl)-oxime]	> 50	> 50	–	–
CCO[C@@H]1[C@@H](OC)[C@H](C)O[C@@H](O/N=C/c2ccc(C#Cc3ccc(OC(F)(F)F)cc3)cc2)[C@@H]1OC [Compound 13, 4-(4-trifluoromethoxyphenylethynyl)-benzaldehyde O-((2S,3R,4R,5S,6S)-4-ethoxy-3,5-dimethoxy-6-methyl-tetrahydropyran-2-yl)-oxime]	> 50	> 50	–	–
CCO[C@@H]1[C@@H](OC)[C@H](C)O[C@@H](OC(=O)Nc2ccc(/C=C/c3ccc(C(F)(F)F)cc3)cc2)[C@@H]1OC [Compound 16, {4-[(E)-2-(4-trifluoromethylphenyl)-vinyl]-phenyl}-carbamic acid (2S,3R,4R,5S,6S)-4-ethoxy-3,5-dimethoxy-6-methyl-tetrahydropyran-2-yl ester]	–	–	> 50	> 50
CCO[C@@H]1[C@@H](OC)[C@H](C)O[C@@H](O/N=C/c2ccc(/C=C/c3ccc(C(F)(F)C(F)(F)OC(F)(F)C(F)(F)C(F)(F)F)cc3)cc2)[C@@H]1OC [Compound 3]	< 50	< 50	–	–
CCO[C@@H]1[C@@H](OC)[C@H](C)O[C@@H](OC(=O)Nc2ccc(/N=N/c3cccc(OC(F)(F)F)c3)cc2)[C@@H]1OC [Compound 19, [4-(3-trifluoromethoxyphenylazo)-phenyl]-carbamic acid (2S,3R,4R,5S,6S)-3,5-dimethoxy-4-ethoxy-6-methyl-tetrahydropyran-2-yl ester]	–	–	> 50	> 50
CO[C@@H]1[C@@H](OC)[C@H](C)O[C@@H](O/N=C/c2ccc(/C=C/c3cccc(C(F)(F)F)c3)cc2)[C@@H]1OC [Compound 9, 4-[(E)-2-(3-Trifluoromethylphenyl)-vinyl]-benzaldehyde O-((2S,3R,4R,5S,6S)-3,4,5-trimethoxy-6-methyl-tetrahydropyran-2-yl)-oxime]	< 50	> 50	–	–
CCO[C@@H]1[C@@H](OC)[C@H](C)O[C@@H](O/N=C/c2ccc(/C=C/c3ccc(OC(F)(F)C(F)(F)F)cc3)cc2)[C@@H]1OC [Compound 7, 4-[(E)-2-(4-Pentafluoroethyloxyphenyl)-vinyl]-benzaldehyde O-((2S,3R,4R,5S,6S)-4-ethoxy-3,5-dimethoxy-6-methyl-tetrahydropyran-2-yl)-oxime]	< 50	> 50	–	–
CCO[C@@H]1[C@@H](OC)[C@H](C)O[C@@H](OC(=O)Nc2ccc(/N=N/c3ccc(OC(F)(F)C(F)(F)F)cc3)cc2)[C@@H]1OC [Compound 22, [4-(4-Pentafluoroethyloxyphenylazo)-phenyl]-carbamic acid (2S,3R,4R,5S,6S)-4-ethoxy-3,5-dimethoxy-6-methyl-tetrahydropyran-2-yl ester]	–	–	> 50	> 50
CO[C@@H]1[C@@H](OC)[C@H](C)O[C@@H](O/N=C/c2ccc(/C=C/c3ccc(OC(F)(F)F)cc3)cc2)[C@@H]1OC [Compound 8]	> 50	> 50	–	–
CCO[C@@H]1[C@@H](OC)[C@H](C)O[C@@H](O/N=C/c2ccc(/C=C/c3ccc(C(C)=O)cc3)cc2)[C@@H]1OC [Compound 4, 4-[(E)-2-(4-Acetyl-phenyl)-vinyl]-benzaldehyde O-((2S,3R,4R,5S,6S)-4-ethoxy-3,5-dimethoxy-6-methyl-tetrahydropyran-2-yl)-oxime]	< 50	< 50	–	–
CCCO[C@@H]1[C@@H](OC)[C@H](C)O[C@@H](OC(=O)Nc2ccc(/C=C/c3ccc(OC(F)(F)C(F)(F)F)cc3)cc2)[C@@H]1OC [Compound 18, {4-[(E)-2-(4-Pentafluoroethyloxyphenyl)-vinyl]-phenyl}-carbamic acid (2S,3R,4R,5S,6S)-4-propoxy-3,5-dimethoxy-6-methyl-tetrahydropyran-2-yl ester]	–	–	< 50	> 50
CCO[C@@H]1[C@@H](OC)[C@H](C)O[C@@H](OC(=O)Nc2ccc(/N=N/c3ccc(OC(F)(F)F)cc3)cc2)[C@@H]1OC [Compound 20, [4-(4-Trifluoromethoxy-phenylazo)-phenyl]-carbamic acid (2S,3R,4R,5S,6S)-4-ethoxy-3,5-dimethoxy-6-methyl-tetrahydropyran-2-yl ester]	–	–	> 50	> 50

Reference: patent US8394774B2, “Pesticidal compositions” (Dow AgroSciences, LLC., priority 2009, dated 2013)
